US20120016009A1, “Optimized Methods For Delivery Of DSRNA Targeting The PCSK9 Gene” (priority 2008, published 2012)
In the oligonucleotide strings, read from the 5' end, every base follows the letter of its sugar. An asterisk marks phosphorothioate; unmarked linkages are phosphodiester. Other units and linkages are bracketed, terminal groups are in braces. A string of capitals states the bases alone. d = 2'-deoxy (DNA); r = 2'-OH (RNA)

System: PCSK9 mRNA
Assay: PCSK9 siRNA screening in HepG2 cells (lipofectamine 2000 transfection, PCSK9 mRNA by Quantigene, normalized to GAP-DH)
Assay type: cell-based, human
Settings: for Mean percent remaining mRNA transcript at siRNA concentration/in cell type 3 nM/HepG2: 3 nM siRNA; for Mean percent remaining mRNA transcript at siRNA concentration/in cell type 30 nM/HepG2: 30 nM siRNA
Experimental: HuH-7 cells were obtained from JCRB Cell Bank (Japanese Collection of Research Bioresources) (Shinjuku, Japan, cat. No.: JCRB0403) Cells were cultured in Dulbecco's MEM (Biochrom AG, Berlin, Germany, cat. No. F0435) supplemented to contain 10% fetal calf serum (FCS) (Biochrom AG, Berlin, Germany, cat. No. S0115), Penicillin 100 U/ml, Streptomycin 100 μg/ml (Biochrom AG, Berlin, Germany, cat. No. A2213) and 2 mM L-Glutamin (Biochrom AG, Berlin, Germany, cat. No K0282) at 37° C. in an atmosphere with 5% CO2 in a humidified incubator (Heraeus HERAcell, Kendro Laboratory Products, Langenselbold, Germany) HepG2 and HeLa cells were obtained from American Type Culture Collection (Rockville, Md., cat. No. HB-8065) and cultured in MEM (Gibco Invitrogen, Karlsruhe, Germany, cat. No. 21090-022) supplemented to contain 10% fetal calf serum (FCS) (Biochrom AG, Berlin, Germany, cat. No. S0115), Penicillin 100 U/ml, Streptomycin 100 μg/ml (Biochrom AG, Berlin, Germany, cat. No. A2213), 1× Non Essential Amino Acids (Biochrom AG, Berlin, Germany, cat. No. K-0293), and 1 mM Sodium Pyruvate (Biochrom AG, Berlin, Germany, cat. No. L-0473) at 37° C. in an atmosphere with 5% CO2 in a humidified incubator (Heraeus HERAcell, Kendro Laboratory Products, Langenselbold, Germany).
For transfection with siRNA, HuH7, HepG2, or HeLa cells were seeded at a density of 2.0×10^4 cells/well in 96-well plates and transfected directly. Transfection of siRNA (30 nM for single dose screen) was carried out with lipofectamine 2000 (Invitrogen GmbH, Karlsruhe, Germany, cat. No. 11668-019) as described by the manufacturer.
24 hours after transfection HuH7 and HepG2 cells were lysed and PCSK9 mRNA levels were quantified with the Quantigene Explore Kit (Genosprectra, Dumbarton Circle Fremont, USA, cat. No. QG-000-02) according to the protocol. PCSK9 mRNA levels were normalized to GAP-DH mRNA. For each siRNA eight individual datapoints were collected. siRNA duplexes unrelated to PCSK9 gene were used as control. The activity of a given PCSK9 specific siRNA duplex was expressed as percent PCSK9 mRNA concentration in treated cells relative to PCSK9 mRNA concentration in cells treated with the control siRNA duplex.
Tables 1b and 2b (and FIG. 6A) summarize the results and provide examples of in vitro screens in different cell lines at different doses. Silencing of PCSK9 transcript was expressed as percentage of remaining transcript at a given dose.
Very active sequences are those that have less than 60% of transcript remaining after treatment with a dose less than or equal to 100 nM. Active sequences are those that have less than 90% transcript remaining after treatment with a high dose (100 nM).

AD-9315: PCSK9 siRNA (sense rGrCrGrGrCrArCrCrCrUrCrArUrArGrGrCrCrUdT*dT; antisense rArGrGrCrCrUrArUrGrArGrGrGrUrGrCrCrGrCdT*dT)
IC50: 0.98 nM | Mean percent remaining mRNA transcript at siRNA concentration/in cell type 3 nM/HepG2: 32% | Mean percent remaining mRNA transcript at siRNA concentration/in cell type 30 nM/HepG2: 15%

AD-9323: PCSK9 siRNA (sense rGrGrCrCrUrGrGrArGrUrUrUrArUrUrCrGrGrAdT*dT; antisense rUrCrCrGrArArUrArArArCrUrCrCrArGrGrCrCdT*dT)
Mean percent remaining mRNA transcript at siRNA concentration/in cell type 3 nM/HepG2: 33% | Mean percent remaining mRNA transcript at siRNA concentration/in cell type 30 nM/HepG2: 14%

AD-9324: PCSK9 siRNA (sense rGrCrCrArUrCrUrGrCrUrGrCrCrGrGrArGrCrCdT*dT; antisense rGrGrCrUrCrCrGrGrCrArGrCrArGrArUrGrGrCdT*dT)
Mean percent remaining mRNA transcript at siRNA concentration/in cell type 3 nM/HepG2: 67% | Mean percent remaining mRNA transcript at siRNA concentration/in cell type 30 nM/HepG2: 59%

AD-9326: PCSK9 siRNA (sense rGrCrArCrCrCrUrCrArUrArGrGrCrCrUrGrGrAdT*dT; antisense rUrCrCrArGrGrCrCrUrArUrGrArGrGrGrUrGrCdT*dT)
Mean percent remaining mRNA transcript at siRNA concentration/in cell type 3 nM/HepG2: 51% | Mean percent remaining mRNA transcript at siRNA concentration/in cell type 30 nM/HepG2: 35%

AD-9514: PCSK9 siRNA (sense rGrUrArCrCrGrGrGrCrGrGrArUrGrArArUrArCdT*dT; antisense rGrUrArUrUrCrArUrCrCrGrCrCrCrGrGrUrArCdT*dT)
Mean percent remaining mRNA transcript at siRNA concentration/in cell type 30 nM/HepG2: 57%

AD-9515: PCSK9 siRNA (sense rGrGrUrArCrCrGrGrGrCrGrGrArUrGrArArUrAdT*dT; antisense rUrArUrUrCrArUrCrCrGrCrCrCrGrGrUrArCrCdT*dT)
Mean percent remaining mRNA transcript at siRNA concentration/in cell type 30 nM/HepG2: 49%

AD-9516: PCSK9 siRNA (sense rUrGrUrArUrCrUrCrCrUrArGrArCrArCrCrArGdT*dT; antisense rCrUrGrGrUrGrUrCrUrArGrGrArGrArUrArCrAdT*dT)
Mean percent remaining mRNA transcript at siRNA concentration/in cell type 30 nM/HepG2: 94%

AD-9517: PCSK9 siRNA (sense rGrGrArGrGrUrGrUrArUrCrUrCrCrUrArGrArCdT*dT; antisense rGrUrCrUrArGrGrArGrArUrArCrArCrCrUrCrCdT*dT)
Mean percent remaining mRNA transcript at siRNA concentration/in cell type 30 nM/HepG2: 36%

AD-9519: PCSK9 siRNA (sense rCrCrCrArGrCrCrArGrGrArUrUrCrCrGrCrGrCdT*dT; antisense rGrCrGrCrGrGrArArUrCrCrUrGrGrCrUrGrGrGdT*dT)
Mean percent remaining mRNA transcript at siRNA concentration/in cell type 30 nM/HepG2: 78%

AD-9521: PCSK9 siRNA (sense rCrUrCrCrUrArGrArCrArCrCrArGrCrArUrArCdT*dT; antisense rGrUrArUrGrCrUrGrGrUrGrUrCrUrArGrGrArGdT*dT)
Mean percent remaining mRNA transcript at siRNA concentration/in cell type 30 nM/HepG2: 50%

AD-9522: PCSK9 siRNA (sense rArArGrGrArGrCrArUrGrGrArArUrCrCrCrGrGdT*dT; antisense rCrCrGrGrGrArUrUrCrCrArUrGrCrUrCrCrUrUdT*dT)
Mean percent remaining mRNA transcript at siRNA concentration/in cell type 30 nM/HepG2: 59%

AD-9523: PCSK9 siRNA (sense rCrArGrCrCrArGrGrArUrUrCrCrGrCrGrCrGrCdT*dT; antisense rGrCrGrCrGrCrGrGrArArUrCrCrUrGrGrCrUrGdT*dT)
Mean percent remaining mRNA transcript at siRNA concentration/in cell type 30 nM/HepG2: 55%

AD-9524: PCSK9 siRNA (sense rGrCrUrGrGrUrGrCrUrArGrCrCrUrUrGrCrGrUdT*dT; antisense rArCrGrCrArArGrGrCrUrArGrCrArCrCrArGrCdT*dT)
IC50: 0.07 nM | Mean percent remaining mRNA transcript at siRNA concentration/in cell type 3 nM/HepG2: 28% | Mean percent remaining mRNA transcript at siRNA concentration/in cell type 30 nM/HepG2: 23%

AD-9525: PCSK9 siRNA (sense rGrGrArGrUrUrUrArUrUrCrGrGrArArArArGrCdT*dT; antisense rGrCrUrUrUrUrCrCrGrArArUrArArArCrUrCrCdT*dT)
Mean percent remaining mRNA transcript at siRNA concentration/in cell type 30 nM/HepG2: 53%
